Publication PMC9709698 (Journal of Molecular Structure, 2022)

Tests used:
NRC-03-nhCoV = assay: Antiviral activity; format: cell-based, SARS-CoV-2; conditions: CC50 Vero-E6 / IC50 NRC-03-nhCoV
SARS-CoV-2 = assay: Plaque infectivity reduction assay; format: cell-based; conditions: for inhibition at 62.5 µM: Severe acute respiratory syndrome coronavirus 2, read-out: Virus inhibition% Adsorption, 62.5 µM; for inhibition at 125 µM: Severe acute respiratory syndrome coronavirus 2, read-out: Virus inhibition% Adsorption, 125 µM

SMILES	SI (selectivity index) [CC50/IC50] (NRC-03-nhCoV)	other results
O=C(CSc1nc2ccccc2c(=O)[nH]1)Nc1ccccc1C(=O)O [Compound 11a, 2-(2-((4-Oxo-3,4-dihydroquinazolin-2-yl)thio)acetamido)benzoic acid]	4.3	–
O=C(CSc1nc2ccccc2c(=O)[nH]1)Nc1cccc(C(=O)O)c1 [Compound 11b, 3-(2-((4-Oxo-3,4-dihydroquinazolin-2-yl)thio)acetamido)benzoic acid]	4.9	–
O=C(CSc1nc2ccccc2c(=O)[nH]1)Nc1ccc(C(=O)O)cc1 [Compound 11c, 4-(2-((4-Oxo-3,4-dihydroquinazolin-2-yl)thio)acetamido)benzoic acid]	5.6	–
O=C(CSc1nc2c(c(=O)[nH]1)CCCC2)Nc1ccccc1C(=O)O [Compound 12a, 2-(2-((4-Oxo-3,4,5,6,7,8-hexahydroquinazolin-2-yl)thio)acetamido)benzoic acid]	2.5	–
O=C(CSc1nc2c(c(=O)[nH]1)CCCC2)Nc1cccc(C(=O)O)c1 [Compound 12b, 3-(2-((4-Oxo-3,4,5,6,7,8-hexahydroquinazolin-2-yl)thio)acetamido)benzoic acid]	0.98	–
O=C(CSc1nc2c(c(=O)[nH]1)CCCC2)Nc1ccc(C(=O)O)cc1 [Compound 12c, 4-(2-((4-Oxo-3,4,5,6,7,8-hexahydroquinazolin-2-yl)thio)acetamido)benzoic acid]	0.63	–
O=C(CSc1nc2ccccc2c(=O)[nH]1)NNC(=O)c1ccccc1 [Compound 17a, N'-(2-((4-Oxo-3,4-dihydroquinazolin-2-yl)thio)acetyl)benzohydrazide]	0.59	–
Cc1ccc(C(=O)NNC(=O)CSc2nc3ccccc3c(=O)[nH]2)cc1 [Compound 17b, 4-Methyl-N'-(2-((4-oxo-3,4-dihydroquinazolin-2-yl)thio)acetyl)benzohydrazide]	2.14	–
O=C(CSc1nc2ccccc2c(=O)[nH]1)NNC(=O)c1ccc([N+](=O)[O-])cc1 [Compound 17c, 4-Nitro-N'-(2-((4-oxo-3,4-dihydroquinazolin-2-yl)thio)acetyl)benzohydrazide]	2.61	–
COc1ccccc1C(=O)NNC(=O)CSc1nc2ccccc2c(=O)[nH]1 [Compound 17d, 2-Methoxy-N'-(2-((4-oxo-3,4-dihydroquinazolin-2-yl)thio)acetyl)benzohydrazide]	0.4	–
O=C(CSc1nc2ccccc2c(=O)[nH]1)NNC(=O)c1ccccc1Cl [Compound 17e, 2-Chloro-N'-(2-((4-oxo-3,4-dihydroquinazolin-2-yl)thio)acetyl)benzohydrazide]	0.24	–
O=C(CSc1nc2ccccc2c(=O)[nH]1)NNC(=O)c1ccc(Cl)cc1 [Compound 17f, 4-Chloro-N'-(2-((4-oxo-3,4-dihydroquinazolin-2-yl)thio)acetyl)benzohydrazide]	4.3	–
O=C(CSc1nc2ccccc2c(=O)[nH]1)NNC(=O)c1ccccc1Br [Compound 17g, 2-Bromo-N'-(2-((4-oxo-3,4-dihydroquinazolin-2-yl)thio)acetyl)benzohydrazide]	8.64	inhibition at 62.5 µM (SARS-CoV-2): 26.7 ± 6.65%; inhibition at 125 µM (SARS-CoV-2): 29.6 ± 8.3%
O=C(CSc1nc2c(c(=O)[nH]1)CCCC2)NNC(=O)c1ccccc1 [Compound 18a, N'-(2-((4-oxo-3,4,5,6,7,8-hexahydroquinazolin-2-yl)thio)acetyl)benzohydrazide]	1.68	–
Cc1ccc(C(=O)NNC(=O)CSc2nc3c(c(=O)[nH]2)CCCC3)cc1 [Compound 18b, 4-Methyl-N'-(2-((4-oxo-3,4,5,6,7,8-hexahydroquinazolin-2-yl)thio)acetyl)benzohydrazide]	4.43	–
O=C(CSc1nc2c(c(=O)[nH]1)CCCC2)NNC(=O)c1ccc([N+](=O)[O-])cc1 [Compound 18c, 4-Nitro-N'-(2-((4-oxo-3,4,5,6,7,8-hexahydroquinazolin-2-yl)thio)acetyl)benzohydrazide]	10.67	inhibition at 62.5 µM (SARS-CoV-2): 28.9 ± 10.2%; inhibition at 125 µM (SARS-CoV-2): 44.4 ± 3.87%
COc1ccccc1C(=O)NNC(=O)CSc1nc2c(c(=O)[nH]1)CCCC2 [Compound 18d, 2-Methoxy-N'-(2-((4-oxo-3,4,5,6,7,8-hexahydroquinazolin-2-yl)thio)acetyl)benzohydrazide]	2.95	–
O=C(CSc1nc2c(c(=O)[nH]1)CCCC2)NNC(=O)c1ccccc1Cl [Compound 18e, 2-Chloro-N'-(2-((4-oxo-3,4,5,6,7,8-hexahydroquinazolin-2-yl)thio)acetyl)benzohydrazide]	1.14	–
O=C(CSc1nc2c(c(=O)[nH]1)CCCC2)NNC(=O)c1ccc(Cl)cc1 [Compound 18f, 4-Chloro-N'-(2-((4-oxo-3,4,5,6,7,8-hexahydroquinazolin-2-yl)thio)acetyl)benzohydrazide]	16.04	Virus inhibition% Virucidal (SARS-CoV-2; 125 µM): 53.3 ± 3.35%; inhibition at 62.5 µM (SARS-CoV-2): 13.3 ± 3.35%; inhibition at 125 µM (SARS-CoV-2): 20 ± 3.3%
O=C(CSc1nc2c(c(=O)[nH]1)CCCC2)NNC(=O)c1ccccc1Br [Compound 18g, 2-Bromo-N'-(2-((4-oxo-3,4,5,6,7,8-hexahydroquinazolin-2-yl)thio)acetyl)benzohydrazide]	5.23	–
